How the values were obtained:
Histone deacetylase 8 = molecular target: T1, Histone deacetylase 8 (Homo sapiens, UniProt Q9BY41); assay: Inhibition of human HDAC8
T1 sequence (Q9BY41 whole entry): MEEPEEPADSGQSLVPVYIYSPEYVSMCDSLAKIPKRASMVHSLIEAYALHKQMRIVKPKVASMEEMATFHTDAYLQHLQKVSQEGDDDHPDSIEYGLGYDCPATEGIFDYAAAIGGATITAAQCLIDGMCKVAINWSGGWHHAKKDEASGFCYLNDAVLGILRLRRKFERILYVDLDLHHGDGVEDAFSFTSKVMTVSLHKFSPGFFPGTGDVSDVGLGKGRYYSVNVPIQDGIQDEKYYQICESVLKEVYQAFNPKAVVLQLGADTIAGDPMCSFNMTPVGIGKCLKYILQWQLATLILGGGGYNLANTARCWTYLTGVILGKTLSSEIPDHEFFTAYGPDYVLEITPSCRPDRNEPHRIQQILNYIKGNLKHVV

Histone deacetylase 3 = Histone deacetylase 3 (Homo sapiens, UniProt O15379); assay: Inhibition of human HDAC3
Histone deacetylase 11 = molecular target: T2, Histone deacetylase 11 (Homo sapiens, UniProt Q96DB2); assay: Inhibition of human HDAC11
T2 sequence (Q96DB2 whole entry): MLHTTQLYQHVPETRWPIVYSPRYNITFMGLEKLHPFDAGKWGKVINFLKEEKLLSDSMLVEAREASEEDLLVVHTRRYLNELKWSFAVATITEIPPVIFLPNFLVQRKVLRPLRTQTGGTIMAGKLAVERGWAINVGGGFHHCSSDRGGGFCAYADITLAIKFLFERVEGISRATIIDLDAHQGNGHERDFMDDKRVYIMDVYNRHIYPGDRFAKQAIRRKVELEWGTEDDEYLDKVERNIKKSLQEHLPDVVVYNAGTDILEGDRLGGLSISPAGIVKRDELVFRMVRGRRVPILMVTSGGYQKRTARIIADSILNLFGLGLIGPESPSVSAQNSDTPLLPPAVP

Histone deacetylase 1 = Histone deacetylase 1 (Homo sapiens, UniProt Q13547)
HCT-116 = assay: Cytotoxicity against human HCT116 cells after 48 hrs by SRB assay; type: functional, cell-based; details: HCT-116, 48 h
Histone deacetylase 9 = Histone deacetylase 9 (Homo sapiens, UniProt Q9UKV0); assay: Inhibition of human HDAC9
[1] = molecular target: T3, Polyamine deacetylase HDAC10 (Homo sapiens, UniProt Q969S8); assay: Inhibition of human HDAC10
T3 sequence (Q969S8 whole entry): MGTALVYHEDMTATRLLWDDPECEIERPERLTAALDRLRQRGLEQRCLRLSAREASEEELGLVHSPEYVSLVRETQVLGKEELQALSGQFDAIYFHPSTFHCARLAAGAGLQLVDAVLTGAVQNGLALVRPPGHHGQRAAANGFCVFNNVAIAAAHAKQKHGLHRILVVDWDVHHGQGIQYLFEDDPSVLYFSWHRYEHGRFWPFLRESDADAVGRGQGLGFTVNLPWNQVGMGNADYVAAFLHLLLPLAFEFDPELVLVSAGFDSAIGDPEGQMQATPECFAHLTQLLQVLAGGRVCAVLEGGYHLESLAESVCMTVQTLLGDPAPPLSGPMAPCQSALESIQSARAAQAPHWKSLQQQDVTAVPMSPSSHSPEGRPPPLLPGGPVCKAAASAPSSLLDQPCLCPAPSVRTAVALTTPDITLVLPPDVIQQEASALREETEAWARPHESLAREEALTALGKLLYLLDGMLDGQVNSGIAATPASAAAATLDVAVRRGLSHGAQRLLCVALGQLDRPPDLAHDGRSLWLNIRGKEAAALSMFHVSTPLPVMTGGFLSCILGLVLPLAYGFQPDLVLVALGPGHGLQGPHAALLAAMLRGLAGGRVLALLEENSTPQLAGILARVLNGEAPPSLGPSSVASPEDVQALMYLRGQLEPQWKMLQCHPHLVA

Histone deacetylase 7 = molecular target: T4, Histone deacetylase 7 (Homo sapiens, UniProt Q8WUI4); assay: Inhibition of human HDAC7
T4 sequence (Q8WUI4 whole entry): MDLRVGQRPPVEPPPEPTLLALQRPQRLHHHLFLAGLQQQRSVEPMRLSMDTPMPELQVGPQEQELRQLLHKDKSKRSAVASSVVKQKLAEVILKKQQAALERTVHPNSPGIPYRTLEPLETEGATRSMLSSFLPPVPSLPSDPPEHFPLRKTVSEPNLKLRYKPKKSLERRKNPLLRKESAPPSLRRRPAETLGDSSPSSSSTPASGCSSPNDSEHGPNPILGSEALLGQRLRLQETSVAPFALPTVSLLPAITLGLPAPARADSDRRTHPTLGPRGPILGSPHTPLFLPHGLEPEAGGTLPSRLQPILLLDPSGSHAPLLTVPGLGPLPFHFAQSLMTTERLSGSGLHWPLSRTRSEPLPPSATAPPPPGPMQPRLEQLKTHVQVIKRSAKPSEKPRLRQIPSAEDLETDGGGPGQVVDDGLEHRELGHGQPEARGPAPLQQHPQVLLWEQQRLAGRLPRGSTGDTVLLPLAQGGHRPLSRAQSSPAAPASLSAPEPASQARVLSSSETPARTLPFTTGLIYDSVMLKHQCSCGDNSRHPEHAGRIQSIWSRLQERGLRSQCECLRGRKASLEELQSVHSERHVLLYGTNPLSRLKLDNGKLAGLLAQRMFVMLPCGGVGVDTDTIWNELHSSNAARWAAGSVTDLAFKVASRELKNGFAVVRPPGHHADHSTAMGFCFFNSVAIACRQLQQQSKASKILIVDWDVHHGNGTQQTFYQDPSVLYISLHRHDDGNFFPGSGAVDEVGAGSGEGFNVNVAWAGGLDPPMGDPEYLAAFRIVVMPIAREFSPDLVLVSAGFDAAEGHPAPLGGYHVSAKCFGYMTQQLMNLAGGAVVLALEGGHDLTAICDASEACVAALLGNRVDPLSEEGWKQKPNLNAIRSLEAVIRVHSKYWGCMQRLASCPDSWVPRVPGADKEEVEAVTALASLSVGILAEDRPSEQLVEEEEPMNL

NCI-H460 = assay: Cytotoxicity against human NCI-H460 cells after 48 hrs by SRB assay; type: functional, cell-based; details: NCI-H460, 48 h
Histone deacetylase 5 = Histone deacetylase 5 (Homo sapiens, UniProt Q9UQL6); assay: Inhibition of human HDAC5
NB-4 = assay: Cytotoxicity against human NB4 cells after 48 hrs by SRB assay; type: functional, cell-based; details: NB-4, 48 h
Histone deacetylase 4 = Histone deacetylase 4 (Homo sapiens, UniProt P56524)
Description: Inhibition of human HDAC4

[2] = molecular target: T5, Protein deacetylase HDAC6 (Homo sapiens, UniProt Q9UBN7); assay: Inhibition of human HDAC6
T5 sequence (Q9UBN7 whole entry): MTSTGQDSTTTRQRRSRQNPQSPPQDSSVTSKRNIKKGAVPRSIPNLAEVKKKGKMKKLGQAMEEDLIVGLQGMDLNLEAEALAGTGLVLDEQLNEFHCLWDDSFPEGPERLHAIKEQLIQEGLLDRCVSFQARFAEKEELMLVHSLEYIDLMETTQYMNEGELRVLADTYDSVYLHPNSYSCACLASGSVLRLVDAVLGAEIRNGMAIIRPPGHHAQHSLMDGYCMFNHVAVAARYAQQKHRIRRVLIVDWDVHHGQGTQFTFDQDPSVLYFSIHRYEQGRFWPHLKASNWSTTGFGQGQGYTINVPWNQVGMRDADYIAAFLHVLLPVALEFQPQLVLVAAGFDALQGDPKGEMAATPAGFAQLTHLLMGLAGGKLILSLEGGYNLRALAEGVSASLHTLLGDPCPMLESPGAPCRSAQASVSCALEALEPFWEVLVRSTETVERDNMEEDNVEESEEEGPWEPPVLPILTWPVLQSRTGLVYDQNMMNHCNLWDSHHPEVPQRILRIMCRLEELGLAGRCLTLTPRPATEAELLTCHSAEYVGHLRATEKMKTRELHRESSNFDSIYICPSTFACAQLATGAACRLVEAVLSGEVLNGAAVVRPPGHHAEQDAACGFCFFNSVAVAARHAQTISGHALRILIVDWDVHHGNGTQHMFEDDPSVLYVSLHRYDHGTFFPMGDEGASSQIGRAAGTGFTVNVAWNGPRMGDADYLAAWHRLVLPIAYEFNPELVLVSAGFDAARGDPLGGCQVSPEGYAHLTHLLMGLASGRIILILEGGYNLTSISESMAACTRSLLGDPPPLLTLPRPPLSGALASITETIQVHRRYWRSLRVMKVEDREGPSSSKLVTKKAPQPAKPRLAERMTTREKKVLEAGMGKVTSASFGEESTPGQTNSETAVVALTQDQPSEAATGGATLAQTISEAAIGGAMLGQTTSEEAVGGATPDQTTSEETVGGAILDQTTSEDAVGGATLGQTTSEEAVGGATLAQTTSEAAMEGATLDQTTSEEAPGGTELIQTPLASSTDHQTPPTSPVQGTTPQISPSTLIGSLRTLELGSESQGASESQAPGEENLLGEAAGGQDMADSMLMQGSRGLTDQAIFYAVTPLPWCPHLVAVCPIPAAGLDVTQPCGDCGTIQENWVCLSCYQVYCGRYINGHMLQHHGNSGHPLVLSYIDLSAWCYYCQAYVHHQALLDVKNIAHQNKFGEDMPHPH

Histone deacetylase 2 = Histone deacetylase 2 (Homo sapiens, UniProt Q92769); assay: Inhibition of human HDAC2
Sequence of Histone deacetylase 2 (Q92769 whole entry): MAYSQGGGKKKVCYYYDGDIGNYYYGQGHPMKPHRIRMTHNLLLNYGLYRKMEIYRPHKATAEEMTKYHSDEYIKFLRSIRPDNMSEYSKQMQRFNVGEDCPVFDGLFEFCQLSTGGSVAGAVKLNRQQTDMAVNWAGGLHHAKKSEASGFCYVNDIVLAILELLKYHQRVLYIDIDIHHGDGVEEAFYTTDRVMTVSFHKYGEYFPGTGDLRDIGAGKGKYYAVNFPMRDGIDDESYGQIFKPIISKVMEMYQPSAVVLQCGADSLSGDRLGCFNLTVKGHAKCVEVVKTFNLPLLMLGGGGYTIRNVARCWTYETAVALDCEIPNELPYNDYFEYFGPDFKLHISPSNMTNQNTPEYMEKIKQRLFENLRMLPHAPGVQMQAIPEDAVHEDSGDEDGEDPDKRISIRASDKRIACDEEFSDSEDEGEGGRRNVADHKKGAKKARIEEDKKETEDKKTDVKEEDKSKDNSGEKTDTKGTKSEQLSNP

Sequence of Histone deacetylase 3 (O15379 whole entry): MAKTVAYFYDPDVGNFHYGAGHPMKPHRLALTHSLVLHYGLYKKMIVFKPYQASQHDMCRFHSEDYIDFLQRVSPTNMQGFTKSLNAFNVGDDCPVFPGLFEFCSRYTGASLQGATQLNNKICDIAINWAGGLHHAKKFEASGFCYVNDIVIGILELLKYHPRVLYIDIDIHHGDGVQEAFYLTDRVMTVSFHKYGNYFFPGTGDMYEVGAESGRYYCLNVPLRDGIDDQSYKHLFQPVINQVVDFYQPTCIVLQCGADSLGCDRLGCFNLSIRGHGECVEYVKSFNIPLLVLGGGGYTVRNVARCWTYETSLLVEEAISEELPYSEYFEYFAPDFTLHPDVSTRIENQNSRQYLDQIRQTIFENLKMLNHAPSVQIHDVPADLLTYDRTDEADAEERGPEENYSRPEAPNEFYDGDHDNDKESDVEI
Sequence of Histone deacetylase 5 (Q9UQL6 whole entry): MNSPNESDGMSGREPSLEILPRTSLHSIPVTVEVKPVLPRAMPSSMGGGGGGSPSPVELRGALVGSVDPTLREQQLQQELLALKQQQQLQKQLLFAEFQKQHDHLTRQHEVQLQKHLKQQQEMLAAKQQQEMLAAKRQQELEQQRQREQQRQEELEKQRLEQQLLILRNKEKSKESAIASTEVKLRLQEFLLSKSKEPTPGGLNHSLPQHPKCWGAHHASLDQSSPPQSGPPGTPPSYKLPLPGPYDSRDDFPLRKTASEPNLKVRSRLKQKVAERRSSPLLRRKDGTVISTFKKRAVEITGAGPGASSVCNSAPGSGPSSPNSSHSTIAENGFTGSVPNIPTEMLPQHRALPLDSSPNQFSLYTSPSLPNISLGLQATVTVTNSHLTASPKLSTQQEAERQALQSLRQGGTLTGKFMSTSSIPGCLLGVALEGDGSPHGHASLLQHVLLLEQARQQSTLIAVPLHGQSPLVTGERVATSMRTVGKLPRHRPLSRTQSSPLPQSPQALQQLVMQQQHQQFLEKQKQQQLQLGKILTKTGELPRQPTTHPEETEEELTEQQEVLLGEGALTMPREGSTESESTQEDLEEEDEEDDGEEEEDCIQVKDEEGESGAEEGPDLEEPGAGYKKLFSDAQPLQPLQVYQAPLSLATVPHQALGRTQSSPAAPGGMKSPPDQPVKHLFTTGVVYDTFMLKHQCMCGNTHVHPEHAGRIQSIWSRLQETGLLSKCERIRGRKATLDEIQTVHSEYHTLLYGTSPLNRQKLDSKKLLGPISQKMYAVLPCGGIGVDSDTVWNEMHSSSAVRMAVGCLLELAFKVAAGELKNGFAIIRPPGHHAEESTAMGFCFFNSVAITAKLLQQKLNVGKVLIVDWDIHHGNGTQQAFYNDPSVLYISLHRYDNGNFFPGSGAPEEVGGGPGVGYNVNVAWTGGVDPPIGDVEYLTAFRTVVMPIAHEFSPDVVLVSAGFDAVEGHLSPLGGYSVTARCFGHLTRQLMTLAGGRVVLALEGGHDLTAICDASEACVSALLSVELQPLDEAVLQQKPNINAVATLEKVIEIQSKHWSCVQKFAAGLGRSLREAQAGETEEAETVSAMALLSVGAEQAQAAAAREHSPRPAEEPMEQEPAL
Sequence of Histone deacetylase 4 (P56524 whole entry): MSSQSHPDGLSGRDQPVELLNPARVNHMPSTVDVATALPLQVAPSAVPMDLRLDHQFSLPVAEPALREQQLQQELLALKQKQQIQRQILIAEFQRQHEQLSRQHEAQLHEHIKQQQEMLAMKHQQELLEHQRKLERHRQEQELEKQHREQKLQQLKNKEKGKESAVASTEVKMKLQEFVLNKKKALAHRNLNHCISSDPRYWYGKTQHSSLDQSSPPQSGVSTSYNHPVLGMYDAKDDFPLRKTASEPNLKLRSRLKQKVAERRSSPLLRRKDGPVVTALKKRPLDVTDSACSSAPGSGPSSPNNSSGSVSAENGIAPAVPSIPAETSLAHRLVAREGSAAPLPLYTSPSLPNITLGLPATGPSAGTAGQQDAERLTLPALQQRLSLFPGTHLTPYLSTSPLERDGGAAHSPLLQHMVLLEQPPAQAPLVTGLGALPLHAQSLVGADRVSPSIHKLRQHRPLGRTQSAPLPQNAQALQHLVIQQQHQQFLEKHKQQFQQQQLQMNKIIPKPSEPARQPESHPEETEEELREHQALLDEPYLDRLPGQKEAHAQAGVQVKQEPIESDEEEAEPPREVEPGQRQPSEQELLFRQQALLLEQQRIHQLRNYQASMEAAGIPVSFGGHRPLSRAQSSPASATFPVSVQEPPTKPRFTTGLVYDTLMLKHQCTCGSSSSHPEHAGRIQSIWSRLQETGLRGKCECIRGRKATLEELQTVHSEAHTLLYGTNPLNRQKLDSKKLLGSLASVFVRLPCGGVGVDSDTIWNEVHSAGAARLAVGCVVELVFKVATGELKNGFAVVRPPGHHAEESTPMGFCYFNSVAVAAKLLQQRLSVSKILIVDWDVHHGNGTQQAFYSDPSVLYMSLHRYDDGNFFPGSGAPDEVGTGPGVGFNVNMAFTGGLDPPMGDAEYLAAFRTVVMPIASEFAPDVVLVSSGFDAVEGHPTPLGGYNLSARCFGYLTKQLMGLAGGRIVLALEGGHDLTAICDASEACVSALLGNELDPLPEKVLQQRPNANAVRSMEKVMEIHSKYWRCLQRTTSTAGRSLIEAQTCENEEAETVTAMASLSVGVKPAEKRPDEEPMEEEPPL
Sequence of Histone deacetylase 1 (Q13547 whole entry): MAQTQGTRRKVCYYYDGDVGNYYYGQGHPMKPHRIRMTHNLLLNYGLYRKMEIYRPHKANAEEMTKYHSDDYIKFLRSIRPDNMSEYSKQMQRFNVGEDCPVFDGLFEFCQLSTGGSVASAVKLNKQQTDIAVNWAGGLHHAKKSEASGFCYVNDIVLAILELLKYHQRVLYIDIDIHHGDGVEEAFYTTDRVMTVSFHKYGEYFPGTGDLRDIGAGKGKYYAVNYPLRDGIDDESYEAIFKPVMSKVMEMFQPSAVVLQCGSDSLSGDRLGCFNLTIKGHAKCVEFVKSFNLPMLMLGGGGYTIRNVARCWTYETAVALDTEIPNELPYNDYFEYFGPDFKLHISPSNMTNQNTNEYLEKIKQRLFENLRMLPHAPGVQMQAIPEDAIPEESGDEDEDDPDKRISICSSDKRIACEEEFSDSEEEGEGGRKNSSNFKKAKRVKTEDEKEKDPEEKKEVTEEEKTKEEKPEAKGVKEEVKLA
Sequence of Histone deacetylase 9 (Q9UKV0 whole entry): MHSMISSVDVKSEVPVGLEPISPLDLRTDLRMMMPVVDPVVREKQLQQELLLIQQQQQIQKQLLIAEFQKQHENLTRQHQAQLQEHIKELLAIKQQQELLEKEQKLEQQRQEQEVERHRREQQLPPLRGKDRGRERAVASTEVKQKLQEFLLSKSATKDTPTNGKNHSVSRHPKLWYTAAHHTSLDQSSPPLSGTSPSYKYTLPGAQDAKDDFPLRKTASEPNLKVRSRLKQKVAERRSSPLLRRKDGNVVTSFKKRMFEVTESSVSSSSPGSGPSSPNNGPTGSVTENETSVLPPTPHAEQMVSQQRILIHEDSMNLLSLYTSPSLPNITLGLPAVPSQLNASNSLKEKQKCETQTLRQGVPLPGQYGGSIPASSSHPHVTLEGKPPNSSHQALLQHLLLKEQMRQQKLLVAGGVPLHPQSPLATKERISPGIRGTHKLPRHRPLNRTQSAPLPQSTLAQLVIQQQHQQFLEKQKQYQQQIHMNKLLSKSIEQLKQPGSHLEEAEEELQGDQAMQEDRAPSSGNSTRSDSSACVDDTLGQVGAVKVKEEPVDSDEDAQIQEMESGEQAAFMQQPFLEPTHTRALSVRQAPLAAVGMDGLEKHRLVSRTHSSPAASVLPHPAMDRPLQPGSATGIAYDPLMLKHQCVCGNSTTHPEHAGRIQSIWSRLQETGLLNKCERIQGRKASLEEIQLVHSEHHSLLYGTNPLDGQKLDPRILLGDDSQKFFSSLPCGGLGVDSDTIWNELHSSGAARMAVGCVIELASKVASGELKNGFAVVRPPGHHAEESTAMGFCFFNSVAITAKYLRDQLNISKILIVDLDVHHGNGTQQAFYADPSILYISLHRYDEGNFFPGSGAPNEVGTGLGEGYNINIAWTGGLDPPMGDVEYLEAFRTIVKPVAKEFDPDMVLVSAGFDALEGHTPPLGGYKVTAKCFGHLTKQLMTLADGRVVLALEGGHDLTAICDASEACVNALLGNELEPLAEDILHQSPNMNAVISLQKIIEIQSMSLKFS

| SMILES | IC50 (Histone deacetylase 8) [µM] | IC50 (Histone deacetylase 3) [µM] | IC50 (Histone deacetylase 11) [µM] | IC50 (Histone deacetylase 1) [µM] | IC50 (HCT-116) [µM] | IC50 (Histone deacetylase 9) [µM] | IC50 [1] [µM] | IC50 (Histone deacetylase 7) [µM] | IC50 (NCI-H460) [µM] | IC50 (Histone deacetylase 5) [µM] | IC50 (NB-4) [µM] | IC50 (Histone deacetylase 4) [µM] | IC50 [2] [µM] | IC50 (Histone deacetylase 2) [µM] |
| --- | --- | --- | --- | --- | --- | --- | --- | --- | --- | --- | --- | --- | --- | --- |
| O=C(/C=C/c1ccc(-c2cc(CN3CCOCC3)on2)cc1)NO | 0.127 | 3.14 | 6.26 | 6.26 | 4 | 11.2 | 6.1 | 22.3 | 7 | 10.8 |  |  |  |  |
| O=C(/C=C/c1ccc(/C=N/OCc2ccccc2)cc1)NO |  |  |  |  | 2.8 |  |  |  | 1.6 |  | 0.62 |  |  |  |
| O=C(CCc1ccc(/C=N/OCc2ccc([N+](=O)[O-])cc2)cc1)NO |  |  |  |  | 3.1 |  |  |  | 7.7 |  | 0.95 |  |  |  |
| Nc1ccccc1NC(=O)/C=C/c1ccc(/C=N/OCCN2CCOCC2)cc1 |  |  |  |  | > 20 |  |  |  | > 20 |  | 8.9 |  |  |  |
| O=C(/C=C/c1ccc(/C=N/OCc2c(F)c(F)c(F)c(F)c2F)cc1)NO | 1.29 | 2.8 | 5.48 | 5.48 | 2.4 | 12 | 7.36 |  | 1.6 | 7.2 | 0.7 | 38.8 | 0.661 | 11 |
| O=C(/C=C/c1cccc(/C=N/OCCN2CCOCC2)c1)NO |  |  |  |  | 4 |  |  |  | 6.6 |  | 1.9 |  |  |  |
| Nc1ccccc1NC(=O)/C=C/c1ccc(/C=N/OCc2ccc([N+](=O)[O-])cc2)cc1 |  |  |  |  | > 20 |  |  |  | > 20 |  | > 20 |  |  |  |
| O=C(/C=C/c1ccc(C2=NOC(CN3CCOCC3)C2)cc1)NO (configuration not stated) |  |  |  |  | 3 |  |  |  | 9.9 |  |  |  |  |  |
| O=C(/C=C/c1ccc(/C=N/O)cc1)NO |  |  |  |  | 3.5 |  |  |  | 6.3 |  | 2.9 |  |  |  |
| C=CCO/N=C/c1ccc(/C=C/C(=O)NO)cc1 |  |  |  |  | 3.5 |  |  |  | 3.2 |  | 1.4 |  |  |  |
| O=C(/C=C/c1ccc(/C=N/Oc2ccccc2)cc1)NO |  |  |  |  | 3.7 |  |  |  | 5.1 |  | 2.7 |  |  |  |
| O=C(C#Cc1ccc(/C=N/OCc2ccc([N+](=O)[O-])cc2)cc1)NO |  |  |  |  | > 20 |  |  |  | > 20 |  | > 20 |  |  |  |
| O=C(/C=C/c1ccc(/C=N/OCCN2CCOCC2)cc1)NO | 0.235 | 4.08 | 3.06 | 3.06 | 1.8 | 13.1 | 7.84 |  | 2.9 | 7.36 | 1.7 | 16.1 | 0.303 | 27.7 |
| COC(=O)c1ccc(CO/N=C/c2ccc(/C=C/C(=O)NO)cc2)cc1 | 0.603 | 0.659 | 10.8 | 1.82 | 1.7 | 6.43 | 5.43 |  | 1.7 | 3.67 | 0.82 | 12.9 | 0.094 | 15.8 |
| O=C(/C=C/c1ccc(/C=N/OCc2ccc([N+](=O)[O-])cc2)cc1)NO | 0.07 | 0.16 | 0.79 | 0.79 | 1.2 | 2.47 | 1.58 | 2.3 | 2.6 | 1.16 | 0.76 | 2.04 | 0.124 | 2.67 |
